Measurements published in US8618085B2, “Therapeutic formulations of desoxyepothilones” (Koasn Biosciences Incorporated, priority 2000, dated 2013).

Assay: Dilution stability of epothilone D formulations, visual appearance
Assay type: physicochemical
Set-up: key: remained clear; ppt: precipitation; xtal: crystallization
Conditions: for Visual Appearance RODI Dilution 0 h / Visual Appearance RODI Dilution 12 h / Visual Appearance RODI Dilution 24 h / Visual Appearance RODI Dilution 36 h / Visual Appearance RODI Dilution 48 h: 1:10 into RODI water; for Visual Appearance Initial: undiluted
Description: The dilution stability of epothilone D formulations at 8-20 mg/mL in various formulations was examined. A stock solution of epothilone D (100 mg/mL) was prepared in ethanol. Epothilone D formulations were prepared as listed in the following tables by addition of the requisite amount of ethanol, PEG400, 10% Tween® 80, and either propylene glycol or glycerol to the appropriate volume of the epothilone D stock solution. The solubility of epothilone D in each vial was observed visually following gentle swirling. Each formulation was syringe filtered through a 0.2 micron PVDF filter. Each formulation was subsequently diluted 1:8, 1:10, or 1:12 in reverse osmosis deionized water (RODI) or 0.9% saline. Visual observations were taken upon preparation, upon dilution, and both 1 and 24 hours after incubation at ambient temperature.
The dilution stability up to 48 hours post-dilution was examined for the above formulations containg 8-11 mg/mL of epothilone D after 1:10 dilution into either RODI water or 0.45% saline, as summarized in Tables 12 and 13 below.

[1] = 8 mg/mL epo D in 10% Tween 80, 50% ethanol, 30% PEG400, 10% propylene glycol
[2] = 8 mg/mL epo D in 10% Tween 80, 50% ethanol, 30% PEG400, 10% propylene glycol, 0.9% saline
[3] = 8 mg/mL epo D in 10% Tween 80, 50% ethanol, 30% PEG400, 10% propylene glycol, 1:10 into 0.45% saline
[4] = 8 mg/mL epo D in 10% Tween 80, 60% ethanol, 20% PEG400, 10% glycerol
[5] = 8 mg/mL epo D in 10% Tween 80, 60% ethanol, 20% PEG400, 10% glycerol, 0.9% saline
[6] = 8 mg/mL epo D in 10% Tween 80, 60% ethanol, 20% PEG400, 10% glycerol, 1:10 into 0.45% saline
[7] = 9 mg/mL epo D in 10% Tween 80, 50% ethanol, 30% PEG400, 10% propylene glycol, 1:10 into 0.45% saline
[8] = 9 mg/mL epo D in 10% Tween 80, 50% ethanol, 30% PEG400, 10% propylene glycol
[9] = 9 mg/mL epo D in 10% Tween 80, 60% ethanol, 20% PEG400, 10% glycerol, 1:10 into 0.45% saline
[10] = 9 mg/mL epo D in 10% Tween 80, 60% ethanol, 20% PEG400, 10% glycerol
[11] = 10 mg/mL epo D in 10% Tween 80, 50% ethanol, 30% PEG400, 10% propylene glycol
[12] = 10 mg/mL epo D in 10% Tween 80, 50% ethanol, 30% PEG400, 10% propylene glycol, 0.9% saline
[13] = 10 mg/mL epo D in 10% Tween 80, 50% ethanol, 30% PEG400, 10% propylene glycol, 1:10 into 0.45% saline
[14] = 10 mg/mL epo D in 10% Tween 80, 60% ethanol, 20% PEG400, 10% glycerol
[15] = 10 mg/mL epo D in 10% Tween 80, 60% ethanol, 20% PEG400, 10% glycerol, 0.9% saline
[16] = 10 mg/mL epo D in 10% Tween 80, 60% ethanol, 20% PEG400, 10% glycerol, 1:10 into 0.45% saline

C/C1=C/CC(/C(C)=C/c2csc(C)n2)OC(=O)C[C@H](O)C(C)(C)C(=O)[C@H](C)[C@@H](O)[C@@H](C)CCC1 (some centres unmarked) [Epothilone D, Desoxyepothilone B]
Visual Appearance RODI Dilution 1:08 0 h [1]: clear | Visual Appearance RODI Dilution 1:08 24 h [1]: clear | Visual Appearance RODI Dilution 1:10 0 h [1]: clear | Visual Appearance RODI Dilution 1:10 24 h [1]: clear | Visual Appearance RODI Dilution 1:12 0 h [1]: clear | Visual Appearance RODI Dilution 1:12 24 h [1]: clear | Visual Appearance Saline Dilution 1:08 1 h [2]: xtal | Visual Appearance Saline Dilution 1:10 1 h [2]: xtal | Visual Appearance Saline Dilution 1:12 1 h [2]: clear | Visual Appearance Saline Dilution 1:12 24 h [2]: xtal | Visual Appearance Saline Dilution 0 h [3]: clear | Visual Appearance Saline Dilution 12 h [3]: xtal | Visual Appearance RODI Dilution 0 h [1]: clear | Visual Appearance RODI Dilution 12 h [1]: clear | Visual Appearance RODI Dilution 24 h [1]: clear | Visual Appearance RODI Dilution 36 h [1]: clear | Visual Appearance RODI Dilution 48 h [1]: clear | Visual Appearance Initial [1]: clear | Visual Appearance RODI Dilution 1:08 0 h [4]: clear | Visual Appearance RODI Dilution 1:08 24 h [4]: clear | Visual Appearance RODI Dilution 1:10 0 h [4]: clear | Visual Appearance RODI Dilution 1:10 24 h [4]: clear | Visual Appearance RODI Dilution 1:12 0 h [4]: clear | Visual Appearance RODI Dilution 1:12 24 h [4]: clear | Visual Appearance Saline Dilution 1:08 1 h [5]: clear | Visual Appearance Saline Dilution 1:08 24 h [5]: xtal | Visual Appearance Saline Dilution 1:10 1 h [5]: xtal | Visual Appearance Saline Dilution 1:12 1 h [5]: xtal | Visual Appearance Saline Dilution 0 h [6]: clear | Visual Appearance Saline Dilution 12 h [6]: xtal | Visual Appearance RODI Dilution 0 h [4]: clear | Visual Appearance RODI Dilution 12 h [4]: clear | Visual Appearance RODI Dilution 24 h [4]: clear | Visual Appearance RODI Dilution 36 h [4]: xtal | Visual Appearance Initial [4]: clear | Visual Appearance Saline Dilution 0 h [7]: clear | Visual Appearance Saline Dilution 12 h [7]: xtal | Visual Appearance RODI Dilution 0 h [8]: clear | Visual Appearance RODI Dilution 12 h [8]: clear | Visual Appearance RODI Dilution 24 h [8]: clear | Visual Appearance RODI Dilution 36 h [8]: clear | Visual Appearance RODI Dilution 48 h [8]: clear | Visual Appearance Saline Dilution 0 h [9]: clear | Visual Appearance Saline Dilution 12 h [9]: xtal | Visual Appearance RODI Dilution 0 h [10]: clear | Visual Appearance RODI Dilution 12 h [10]: clear | Visual Appearance RODI Dilution 24 h [10]: clear | Visual Appearance RODI Dilution 36 h [10]: xtal | Visual Appearance RODI Dilution 1:08 0 h [11]: clear | Visual Appearance RODI Dilution 1:08 24 h [11]: clear | Visual Appearance RODI Dilution 1:10 0 h [11]: clear | Visual Appearance RODI Dilution 1:10 24 h [11]: clear | Visual Appearance RODI Dilution 1:12 0 h [11]: clear | Visual Appearance RODI Dilution 1:12 24 h [11]: clear | Visual Appearance Saline Dilution 1:08 1 h [12]: xtal | Visual Appearance Saline Dilution 1:10 1 h [12]: xtal | Visual Appearance Saline Dilution 1:12 1 h [12]: xtal | Visual Appearance Saline Dilution 0 h [13]: clear | Visual Appearance Saline Dilution 12 h [13]: clear | Visual Appearance Saline Dilution 24 h [13]: clear | Visual Appearance Saline Dilution 36 h [13]: xtal | Visual Appearance Initial [11]: clear | Visual Appearance RODI Dilution 1:08 0 h [14]: clear | Visual Appearance RODI Dilution 1:08 24 h [14]: clear | Visual Appearance RODI Dilution 1:10 0 h [14]: clear | Visual Appearance RODI Dilution 1:10 24 h [14]: clear | Visual Appearance RODI Dilution 1:12 0 h [14]: clear | Visual Appearance RODI Dilution 1:12 24 h [14]: clear | Visual Appearance Saline Dilution 1:08 1 h [15]: clear | Visual Appearance Saline Dilution 1:08 24 h [15]: xtal | Visual Appearance Saline Dilution 1:10 1 h [15]: xtal | Visual Appearance Saline Dilution 1:12 1 h [15]: xtal | Visual Appearance Saline Dilution 0 h [16]: clear | Visual Appearance Saline Dilution 12 h [16]: xtal
